Data on 20 substances can be found in US20260263593A1, “ALLERGY ANTIGEN AND EPITOPE THEREOF” (HOYU CO., LTD., priority 2018, published 2026).

This assay concerns IgE antibody present in the serum of a shrimp-allergic patient. In words: Epitope mapping (1): array of overlapping 15-amino-acid peptides, chemiluminescence. The assay is classed as binding, human. As to conditions: 15-amino-acid peptide array; serum of 37 patients; difference from N2nd value of 5 non-shrimp-allergic subjects at least 35,000. The procedure: Epitope mapping was carried out using a library of overlapping peptides (length: 15 amino acids) corresponding to the amino acid sequences identified as allergy components of shrimp and the amino acid sequence of arginine kinase. Specifically, the library of overlapping peptides was prepared on the basis of the amino acid sequences of SEQ ID NOs: 117, 141, 146, 2, 45, 87, 276, 161, 230, 179, 362, 381, 399, 421, 455, 481, 486, 520, 541, 300 and 306, and arginine kinase.
The peptides to be synthesized were shifted by 10 amino acids.
For preparation of peptide arrays, the Intavis CelluSpots™ technique was used. Specifically, the peptide arrays were prepared by the following procedure: (1) synthesizing peptides of interest on amino-modified cellulose disks using an automated chemical synthesis apparatus (Intavis MultiPep RS), (2) dissolving the amino-modified cellulose disks to obtain a cellulose-bound peptide solution, and (3) spotting the cellulose-bound peptides onto coated glass slides. The details of each procedure are as described below.
Peptide synthesis was carried out in incremental steps through 9-fluorenylmethoxycarbonyl (Fmoc) chemical reaction on amino-modified cellulose disks in 384-well synthesis plates. Specifically, amino acids in which a Fmoc group is bonded to an amino group were activated in a solution of N,N′-diisopropylcarbodiimide (DIC) and 1-hydroxybenzotriazole (HOBt) in dimethylformamide (DMF) and added dropwise to the cellulose disks so that the Fmoc group-bound amino acids were bound to the amino groups on the cellulose disks (coupling). Unreacted amino groups were capped with acetic anhydride and washed with DMF. Furthermore, the Fmoc groups were eliminated from the amino groups of the amino acids bound to the amino groups on the cellulose disks by treatment with piperidine and washing with DMF. The amino acids bound to the amino groups on the cellulose disks were repetitively subjected to the coupling, the capping, and the Fmoc group elimination described above to elongate the amino terminus for peptide synthesis.
The peptides-bound cellulose disks of interest obtained above in the subsection titled “(1) Synthesis of peptide” were transferred to 96-well plates and treated with a side chain deprotection mixed solution of trifluoroacetic acid (TFA), dichloromethane, triisopropylsilane (TIPS), and water for deprotection of amino acid side chains. Then, the deprotected cellulose-bound peptides were dissolved in a mixed solution of TFA, trifluoromethanesulfonic acid (TFMSA), TIPS, and water and precipitated in tetrabutyl methyl ether (TBME), and the precipitate was resuspended in dimethyl sulfoxide (DMSO) and mixed with a mixed solution of NaCl, sodium citrate, and water to obtain a peptide solution for slide spotting.
The peptide solution for slide spotting obtained above in the subsection titled “(2) Dissolution of amino-modified cellulose disk” was spotted onto Intavis CelluSpots™ slides using Intavis Slide Spotting Robot, and the slides were dried to prepare peptide arrays.
The presence or absence of binding, to each peptide fragment, of an IgE antibody present in the serum of a shrimp-allergic patient was measured through antigen-antibody reaction using the peptide arrays. […]

Take “E1: common 15-residue IgE-binding epitope sequence of polypeptide (E1), myosin heavy chain type 1-derived (ADIEVYLLEKARVIS; VAR_SEQ 1..15 epitope) [Epitope E1]”: the “Peptide bound to an IgE antibody in serum in a patient-specific manner” value (“Peptide bound to an IgE antibody” for short) was “bound to an IgE antibody in serum in a patient-specific manner”.

For the substance “E2: common 15-residue IgE-binding epitope sequence of polypeptide (E2), myosin heavy chain type 1-derived (ARVISQSPAERGYHI; VAR_SEQ 1..15 epitope) [Epitope E2]”, the “Peptide bound to an IgE antibody” value is given as “bound to an IgE antibody in serum in a patient-specific manner”.

For the substance “E3: common 15-residue IgE-binding epitope sequence of polypeptide (E3), myosin heavy chain type 1-derived (GYKDQLANLMKTLNA; VAR_SEQ 1..15 epitope) [Epitope E3]”, the “Peptide bound to an IgE antibody” value is listed as “bound to an IgE antibody in serum in a patient-specific manner”.

In the case of “E4: common 15-residue IgE-binding epitope sequence of polypeptide (E4), myosin heavy chain type 1-derived (HGELEESRTLLEQSD; VAR_SEQ 1..15 epitope) [Epitope E4]”, the “Peptide bound to an IgE antibody” value is recorded as “bound to an IgE antibody in serum in a patient-specific manner”.

Turning to “E5: common 15-residue IgE-binding epitope sequence of polypeptide (E5), myosin heavy chain type 2-derived (GTMEELRDERLAKII; VAR_SEQ 1..15 epitope) [Epitope E5]”, the “Peptide bound to an IgE antibody” value was “bound to an IgE antibody in serum in a patient-specific manner”.

Turning to “E6: common 15-residue IgE-binding epitope sequence of polypeptide (E6), myosin heavy chain type 2-derived (KDHQIRNINDEISHQ; VAR_SEQ 1..15 epitope) [Epitope E6]”, the “Peptide bound to an IgE antibody” value is reported as “bound to an IgE antibody in serum in a patient-specific manner”.

Take “E7: common 15-residue IgE-binding epitope sequence of polypeptide (E7), myosin heavy chain type 2-derived (AKSAMDSLARDKALA; VAR_SEQ 1..15 epitope) [Epitope E7]”: the “Peptide bound to an IgE antibody” value was “bound to an IgE antibody in serum in a patient-specific manner”.

As to “E8: common 15-residue IgE-binding epitope sequence of polypeptide (E8), myosin heavy chain type 2-derived (LEEADNQINQLNNLK; VAR_SEQ 1..15 epitope) [Epitope E8]”, the “Peptide bound to an IgE antibody” value is recorded as “bound to an IgE antibody in serum in a patient-specific manner”.

Take “E9: common 15-residue IgE-binding epitope sequence of polypeptide (E9), myosin heavy chain type 2-derived (DQLATELDASQKECR; VAR_SEQ 1..15 epitope) [Epitope E9]”: the “Peptide bound to an IgE antibody” value is listed as “bound to an IgE antibody in serum in a patient-specific manner”.

Regarding “E10: common 15-residue IgE-binding epitope sequence of polypeptide (E10), myosin heavy chain type 2-derived (HFRIKAVYEENLEHL; VAR_SEQ 1..15 epitope) [Epitope E10]”, the “Peptide bound to an IgE antibody” value is listed as “bound to an IgE antibody in serum in a patient-specific manner”.

Take “E11: common 15-residue IgE-binding epitope sequence of polypeptide (E11), myosin heavy chain type 2-derived (RSLHEIEKNAKRFEI; VAR_SEQ 1..15 epitope) [Epitope E11]”: the “Peptide bound to an IgE antibody” value was “bound to an IgE antibody in serum in a patient-specific manner”.

Take “E12: common 15-residue IgE-binding epitope sequence of polypeptide (E12), glycogen phosphorylase-derived (LPEALERWPTSMLEH; VAR_SEQ 1..15 epitope) [Epitope E12]”: the “Peptide bound to an IgE antibody” value was “bound to an IgE antibody in serum in a patient-specific manner”.

As to “E13: common 15-residue IgE-binding epitope sequence of polypeptide (E13), glycogen phosphorylase-derived (EWVVHLDQLTKLKPL; VAR_SEQ 1..15 epitope) [Epitope E13]”, the “Peptide bound to an IgE antibody” value is “bound to an IgE antibody in serum in a patient-specific manner”.

Take “E14: common 15-residue IgE-binding epitope sequence of polypeptide (E14), hemocyanin subunit L1-derived (ERGIDVLGDVIESSL; VAR_SEQ 1..15 epitope) [Epitope E14]”: the “Peptide bound to an IgE antibody” value is “bound to an IgE antibody in serum in a patient-specific manner”.

For “E15: common 15-residue IgE-binding epitope sequence of polypeptide (E15), hemocyanin subunit L1-derived (LIPKGNEQGLEFDLV; VAR_SEQ 1..15 epitope) [Epitope E15]”, the “Peptide bound to an IgE antibody” value was “bound to an IgE antibody in serum in a patient-specific manner”.

As for “E16: common 15-residue IgE-binding epitope sequence of polypeptide (E16), pyruvate kinase 3-derived (NVRKAAQKYSDKIGH; VAR_SEQ 1..15 epitope) [Epitope E16]”, the “Peptide bound to an IgE antibody” value is given as “bound to an IgE antibody in serum in a patient-specific manner”.

With “E17: common 15-residue IgE-binding epitope sequence of polypeptide (E17), pyruvate kinase 3-derived (PGNRIFVDDGLISLI; VAR_SEQ 1..15 epitope) [Epitope E17]”, the “Peptide bound to an IgE antibody” value was “bound to an IgE antibody in serum in a patient-specific manner”.

Consider “E18: common 15-residue IgE-binding epitope sequence of polypeptide (E18), phosphopyruvate hydratase-derived (NKLAMQEFMILPTGA; VAR_SEQ 1..15 epitope) [Epitope E18]”, for which the “Peptide bound to an IgE antibody” value is recorded as “bound to an IgE antibody in serum in a patient-specific manner”.

In the case of “E19: common 15-residue IgE-binding epitope sequence of polypeptide (E19), mitochondrial ATP synthase subunit alpha precursor-derived (VLSIGDGIARVYGLK; VAR_SEQ 1..15 epitope) [Epitope E19]”, the “Peptide bound to an IgE antibody” value was “bound to an IgE antibody in serum in a patient-specific manner”.

Turning to “E20: common 15-residue IgE-binding epitope sequence of polypeptide (E20), mitochondrial ATP synthase subunit alpha precursor-derived (PESDAKLKQIVTDFL; VAR_SEQ 1..15 epitope) [Epitope E20]”, the “Peptide bound to an IgE antibody” value is on record as “bound to an IgE antibody in serum in a patient-specific manner”.
